According to patent US4427686A, “Pharmacologically active benzopyranotriazole compounds” (Beecham Group Limited, priority 1980, dated 1984):

Assays:
[1] = tested on: rat passive peritoneal anaphylaxis; assay: Rat Passive Peritoneal Anaphylaxis (PPA); format: in vivo, rat (Charles River Sprague Dawley male); conditions: Mean ± SEM, 5-7 rats per group, sodium salt
Text: (a) inhibit rat passive peritoneal anaphylaxis; and
(§1) The compounds were used in the form of their sodium salts.
(§2) Charles River Sprague Dawley male rats of 250-300 g. and Dunkin Hartley male white guinea pigs of 250-300 g. were used.
The method has been described previously. (Ross, Janet W., Smith, H. and Spicer, Barbara A. Increased vascular permeability during passive peritoneal anaphylaxis in the rate. Int. Arch. Allergy appl. Immun., 51, 226, 1976).
Rats were sensitised by giving an intraperitoneal injection of 0.5 ml of Bordetella pertussis vaccine (4×10^10 organisms/ml Burroughs Wellcome, London) and a subcutaneous injection of 0.5 ml of an emulsion of 100 mg of ovalbumin (chicken egg albumin, crystallised and lyophilised, grade 3, Sigma, London) in 2 ml of isotonic saline and 3 ml of Freund's incomplete adjuvant (Difco Laboratories, Michigan, USA).
The rats were bled by cardiac puncture, on day 18, the blood was pooled, and the serum separated, stored at -20° C. and thawed only once before use.
Rats were each given an intraperitoneal injection of 2 ml of a 1 in 5 dilution of the rat anti-serum in isotonic saline. Two hours later 0.3 ml of a 5% solution of Pontamine Sky Blue (Raymond A. Lamb, London) in isotonic saline was injected intravenously, followed by an intraperitoneal injection of the test compound in 1 ml of saline; (control rats received 1 ml of saline); followed 30 seconds later by an intraperitoneal injection of 5 ml of Tyrode's solution containing 50 μg/ml heparin and 0.4 mg/ml of ovalbumin. The concentrations of the compounds are quoted as those in the 6 ml of fluid injected intraperitoneally. Exactly five minutes after challenge the rats were stunned and bled and their peritoneal fluids were collected by opening their peritoneal cavities over funnels into polycarbonate tubes in ice. The supernatants were separated from the cellular residue by centrifugation at 150 g. for five minutes and were retained for assay of dye and histamine. Any samples obviously contaminated with blood were not used for estimation of dye. Groups of at least five rats were used for each dose of compound and the treatments were randomised.
Dye was assayed within two hours by measurement of optical density (OD) at 625 nm.
For histamine assay 0.5 ml samples of the supernatants were added to 1 ml volumes of 12% trichloracetic acid and stored at -20° C. The deproteinised samples were assayed using an automated spectrofluorimetric system (Technicon Autoanalyser) by a method similar to that of Evans, D. P., Lewis, J. A. and Thomson, D. S.: (An automated fluorimetric assay for the rapid determination of histamine in biological fluids. Life Sci., 12, 327, 1973).

[2] = tested on: slow reacting substance of anaphylaxis, SRS-A, on isolated guinea pig ileum; assay: SRS-A Antagonism on Guinea Pig Ileum; set-up: species or system guinea pig (Dunkin Hartley male); conditions: atropine 5×10^-7 M and mepyramine 10^-6 M, sodium salt, read-out: Approximate concentration to give a 50% inhibition of a less than maximal response to SRS-A
Protocol: (b) antagonise the spasmogenic effects of slow reacting substance of anaphylaxis, SRS-A, on isolated guinea pig ileum.
as §1, §2
The compounds were evaluated as direct antagonists of slow reacting substance of anaphylaxis (SRS-A) by assay using the isolated guinea pig ileum.
SRS-A rat was obtained from the peritoneal cavity of the rat after passive peritoneal anaphylaxis by a method based on that of R. P. Orange, D. J. Stechschulte and K. F. Austen, J. Immunology, 105, 1087 (1970) as described by J. W. Ross, H. Smith and B. A. Spicer 1976, Increased vascular permeability during passive peritoneal anaphylaxis in the rat. Int. Arch. Allergy appl., 51, 226. The sensitising serum containing antibody was produced in rats as described by J. W. Ross et. al., ibid.
2 ml of a 1 in 5 dilution of the sensitising serum was injected by the peritoneal route into recipient rats and after 2 hours 5 ml of Tyrode's solution containing 0.4 mg/ml ovalbumin (Sigma Grade III) and 50 μg/ml heparin was injected by the same route. Five minutes after challenge the rats were stunned and bled and the peritoneal fluids collected into polycarbonate tubes in ice. After centrifugation at 150 g. for five minutes the supernatants were combined, heated in a boiling water bath for five minutes, cooled and stored at -20° C. The combined peritoneal fluids contained SRS-A and were used in the antagonism studies.
The SRS-A assays were carried out on isolated strips of guinea pig ileum in Tyrode's solution containing atropine 5×10^-7 M and mepyramine 10^-6 M as described by W. E. Brocklehurst, J. Physiology, 151, 416 (1960).
The ability of the antagonists was determined by their ability to reduce submaximal responses induced by SRS-A. The antagonists were added to the 4 ml bath in 0.1 ml volumes in aqueous solution half a minute before the addition of SRS-A and were present during induced contraction.

[3] = tested on: release of allergic response mediators; conditions: background art; cited from earlier work
released SRS-A = conditions: background art; cited from earlier work

| Structure (SMILES) | IC50 [2] [nM] | Dye concentration in peritoneal fluid as % of mean of controls ([1]; 2 × 10^-5 M injected ip) | Histamine concentration in peritoneal fluid as % of mean of controls ([1]; 2 × 10^-5 M injected ip) | Dye concentration in peritoneal fluid as % of mean of controls ([1]; 2 × 10^-6 M injected ip) | Histamine concentration in peritoneal fluid as % of mean of controls ([1]; 2 × 10^-6 M injected ip) | Dye concentration in peritoneal fluid as % of mean of controls ([1]; 2 × 10^-7 M injected ip) | Histamine concentration in peritoneal fluid as % of mean of controls ([1]; 2 × 10^-7 M injected ip) | inhibition of release of allergic response mediators [3] | inhibition of released SRS-A (released SRS-A) |
| --- | --- | --- | --- | --- | --- | --- | --- | --- | --- |
| CCCc1c(OCC(O)COc2ccc3c(=O)c4[nH]nnc4oc3c2C)ccc(C(C)=O)c1O (stereo not shown) [Example 2, 6-[3-(4-Acetyl-3-hydroxy-2-n-propylphenoxy)-2-hydroxypropan-1-yloxy]-5-methyl-9-oxo-1H,9H-benzopyrano[2,3-d]-v-triazole] | ~32 |  |  | 42 ± 5 % of mean of controls | 14 ± 2 % of mean of controls | 61 ± 7 % of mean of controls | 56 ± 1 % of mean of controls |  |  |
| CCCc1c(OCC(O)COc2ccc3c(=O)cc(C(=O)O)oc3c2CCC)ccc(C(C)=O)c1O (stereo not shown) [FPL 55712] |  |  |  |  |  |  |  | able to effect at least some inhibition of release of these allergic response mediators | inhibit released SRS-A |

Further lines, with some results ahead:

| IC50 [2] [nM] | Structure (SMILES) | Dye concentration in peritoneal fluid as % of mean of controls ([1]; 2 × 10^-5 M injected ip) | Histamine concentration in peritoneal fluid as % of mean of controls ([1]; 2 × 10^-5 M injected ip) | Dye concentration in peritoneal fluid as % of mean of controls ([1]; 2 × 10^-6 M injected ip) | Histamine concentration in peritoneal fluid as % of mean of controls ([1]; 2 × 10^-6 M injected ip) | Dye concentration in peritoneal fluid as % of mean of controls ([1]; 2 × 10^-7 M injected ip) | Histamine concentration in peritoneal fluid as % of mean of controls ([1]; 2 × 10^-7 M injected ip) | inhibition of release of allergic response mediators [3] | inhibition of released SRS-A (released SRS-A) |
| --- | --- | --- | --- | --- | --- | --- | --- | --- | --- |
| ~100 | CCCc1c(OCCCOc2ccc3c(=O)c4[nH]nnc4oc3c2C)ccc(C(C)=O)c1O [Example 1, 6-[3-(4-Acetyl-3-hydroxy-2-n-propylphenoxy)propan-1-yloxy]-5-methyl-9-oxo-1H,9H-benzopyrano[2,3,d]-v-triazole] | 54 ± 7 % of mean of controls | 17 ± 2 % of mean of controls | 63 ± 5 % of mean of controls | 18 ± 2 % of mean of controls |  |  |  |  |
| ~63 | CCCc1c(OCC(O)COc2ccc3c(=O)c4[nH]nnc4oc3c2)ccc(C(C)=O)c1O (stereo not shown) [Example 3, 6-[3-(4-Acetyl-3-hydroxy-2-n-propylphenoxy)-2-hydroxypropan-1-yloxy]-9-oxo-1H,9H-benzopyrano[2,3-d]-v-triazole] |  |  | 51 ± 5 % of mean of controls | 16 ± 2 % of mean of controls | 74 ± 9 % of mean of controls | 56 ± 5 % of mean of controls |  |  |
| ~50 | CCCc1c(OCCCOc2cccc3oc4nn[nH]c4c(=O)c23)ccc(C(C)=O)c1O [Example 4, 8-[3-(4-Acetyl-3-hydroxy-2-n-propylphenoxy)-propan-1-yloxy]-9-oxo-1H,9H-benzopyrano-[2,3-d]-v-triazole] | 92 ± 10 % of mean of controls | 42 ± 6 % of mean of controls | 104 ± 20 % of mean of controls | 89 ± 7 % of mean of controls |  |  |  |  |
